PubChem BioAssay (NCI)
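Where inhibition never reached the appropriate level, the endpoint shown equals the highest concentration tested. Otherwise, values were interpolated linearly from a five-concentration, 48-hour dose response in 96-well plates. TGI marks complete inhibition of growth.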

test system: MALME-3M melanoma; test: inhibition of tumour cell growth, NCI panel, 48 h

`CCCCCCCCCCCCCCCCCCNc1ccn(C2OC(COP(=O)(O)OC3CC(n4cc(F)c(=O)[nH]c4=O)OC3COP(=O)(O)OCC3OC(n4ccc(N)nc4=O)C(O)C3O)C(O)C2O)c(=O)n1` (centres undefined) showed a TGI of over 100 µM.

test system: UACC-62 melanoma; test: inhibition of tumour cell growth, NCI panel, 48 h

First: N#CC(C#N)N=Cc1ccncc1
Second: COc1cc(/C=C(\C#N)c2nc3ccccc3o2)ccc1O
The TGI of the first is higher: over 100 µM for the first, 40.5 µM for the second.

Compared with `COC(=O)C1=C(O)C(C(=O)OC)[C@]2(O)[C@H](C(=O)OC)[C@H]1C[C@@H](c1ccc(F)cc1)[C@H]2C(=O)OC` (some centres undefined), `CCOC(=O)C1=CN/C(=C(/C)C(=O)OC)SC1C(=O)OCC` (centres undefined) is higher in TGI: 33.7 µM for the first, over 100 µM for the second.

Compared with `CC(=O)O[C@H]1CC[C@H]2[C@@H]3CCC4C(C)=NNC(=O)C4[C@H]3CC[C@]12C` (some centres undefined), `CC1(C)C2CCC3=C(CCC4(C)C5C[C@](C)(C(=O)O)CC[C@]5(C)CC[C@]34C)[C@@]2(C)CC[C@@H]1O` (some centres undefined) is lower in TGI: over 100 µM for the first, 37.6 µM for the second.

`O=c1[nH]c(C23CC4CC(CC(C4)C2)C3)cc2c1c(=O)oc1ccccc12` and `O=C1C(=O)c2c(oc(=O)c3ccccc23)-c2ccccc21` cannot be ordered by TGI: over 49.8 µM for the first, over 25 µM for the second.

`CN1CCC2(CC1)SC[C@H]1C(=O)N(c3ccc(Cl)cc3)C(=O)N12` and `O=C(N/N=C/c1ccc2c(c1)OCO2)Nc1ccccc1Cl` cannot be ordered by TGI: over 100 µM for the first, over 83.1 µM for the second.

Going from `CC(C)=CCC[C@@H](C)C1=C(O)C(O)C(C)=C2N=C(c3ccccc3)C(=O)OC21` (some centres undefined) to `Cc1cc(C)nc(NS(=O)(=O)c2ccc(NNc3c4ccccc4nc4c(C(=O)Nc5ccc(S(=O)(=O)Nc6ncccn6)cc5)cccc34)cc2)n1`, the TGI rises from 5.95 µM to 83.7 µM (14-fold).

Going from `COc1ccc2cc(CNCCCCCCCCCCCCNCc3ccc4cc(OC)ccc4c3)ccc2c1` to `CCCCCCCCCCCCCCCCCCNc1ccn(C2OC(COP(=O)(O)OC3CC(n4cc(F)c(=O)[nH]c4=O)OC3COP(=O)(O)OCC3OC(n4ccc(N)nc4=O)C(O)C3O)C(O)C2O)c(=O)n1` (centres undefined), the TGI rises from 38.4 µM to over 44.4 µM.

Going from `O=C1CC(NC(=O)C(F)(F)F)c2c1csc2Br` (centres undefined) to `CCOC(=O)C(SCCO)C(C(=O)OCC)n1cnc2c(N)ncnc21` (centres undefined), the TGI falls from over 100 µM to 24.7 µM.

test system: OVCAR-5 ovarian; test: inhibition of tumour cell growth, NCI panel, 48 h

First: N#CC(C#N)N=Cc1ccncc1
Second: COc1cc(/C=C(\C#N)c2nc3ccccc3o2)ccc1O
The TGI of the first is higher: over 100 µM for the first, 61.2 µM for the second.

First: COC(=O)C1=C(O)C(C(=O)OC)[C@]2(O)[C@H](C(=O)OC)[C@H]1C[C@@H](c1ccc(F)cc1)[C@H]2C(=O)OC (some centres undefined)
Second: CCOC(=O)C1=CN/C(=C(/C)C(=O)OC)SC1C(=O)OCC (centres undefined)
The TGI of the first is lower: 37.5 µM for the first, over 100 µM for the second.

`CC(=O)O[C@H]1CC[C@H]2[C@@H]3CCC4C(C)=NNC(=O)C4[C@H]3CC[C@]12C` (some centres undefined) and `CC1(C)C2CCC3=C(CCC4(C)C5C[C@](C)(C(=O)O)CC[C@]5(C)CC[C@]34C)[C@@]2(C)CC[C@@H]1O` (some centres undefined) cannot be ordered by TGI: over 100 µM for the first, over 100 µM for the second.

Going from `O=c1[nH]c(C23CC4CC(CC(C4)C2)C3)cc2c1c(=O)oc1ccccc12` to `O=C1C(=O)c2c(oc(=O)c3ccccc23)-c2ccccc21`, the TGI rises from 22.8 µM to over 25 µM.

`CN1CCC2(CC1)SC[C@H]1C(=O)N(c3ccc(Cl)cc3)C(=O)N12` and `O=C(N/N=C/c1ccc2c(c1)OCO2)Nc1ccccc1Cl` cannot be ordered by TGI: over 100 µM for the first, over 100 µM for the second.

`CC(C)=CCC[C@@H](C)C1=C(O)C(O)C(C)=C2N=C(c3ccccc3)C(=O)OC21` (some centres undefined) and `Cc1cc(C)nc(NS(=O)(=O)c2ccc(NNc3c4ccccc4nc4c(C(=O)Nc5ccc(S(=O)(=O)Nc6ncccn6)cc5)cccc34)cc2)n1` cannot be ordered by TGI: over 25 µM for the first, 52.5 µM for the second.

`COc1ccc2cc(CNCCCCCCCCCCCCNCc3ccc4cc(OC)ccc4c3)ccc2c1` and `CCCCCCCCCCCCCCCCCCNc1ccn(C2OC(COP(=O)(O)OC3CC(n4cc(F)c(=O)[nH]c4=O)OC3COP(=O)(O)OCC3OC(n4ccc(N)nc4=O)C(O)C3O)C(O)C2O)c(=O)n1` (centres undefined) cannot be ordered by TGI: over 57.1 µM for the first, over 100 µM for the second.

First: O=C1CC(NC(=O)C(F)(F)F)c2c1csc2Br (centres undefined)
Second: CCOC(=O)C(SCCO)C(C(=O)OCC)n1cnc2c(N)ncnc21 (centres undefined)
The TGI of the first is 3.1-fold lower: 6.03 µM for the first, 18.6 µM for the second.

test system: MDA-MB-435; test: inhibition of tumour cell growth, NCI panel, 48 h

Compared with `N#CC(C#N)N=Cc1ccncc1`, `O=C1C(=O)c2c(oc(=O)c3ccccc23)-c2ccccc21` is lower in TGI: over 100 µM for the first, 20.9 µM for the second.

First: COC(=O)C1=C(O)C(C(=O)OC)[C@]2(O)[C@H](C(=O)OC)[C@H]1C[C@@H](c1ccc(F)cc1)[C@H]2C(=O)OC (some centres undefined)
Second: CC(=O)O[C@H]1CC[C@H]2[C@@H]3CCC4C(C)=NNC(=O)C4[C@H]3CC[C@]12C (some centres undefined)
The TGI of the first is lower: 61 µM for the first, over 100 µM for the second.

`O=c1[nH]c(C23CC4CC(CC(C4)C2)C3)cc2c1c(=O)oc1ccccc12` and `CN1CCC2(CC1)SC[C@H]1C(=O)N(c3ccc(Cl)cc3)C(=O)N12` cannot be ordered by TGI: over 60.5 µM for the first, over 100 µM for the second.
